According to patent US20250263404A1, “AMINOPYRIDINES AS ACTIVATORS OF PI3 KINASE” (UCL Business Ltd, priority 2021, published 2025):

Legend:
[1] = molecular target: BRK (Homo sapiens, UniProt Q13882); test: SelectScreen kinase profiling, BRK; format: biochemical; details: 1 μM of 1938, 75 μM ATP
Experimental: (§1) 133 protein kinases and 7 lipid kinases were counterscreened, with […] used at 1 μM, using the Adapta, Lantha and Z-LYTE assays (SelectScreen Kinase Profiling Service; Thermofisher—experimental details of these assays can be found here: https://www.thermofisher.com/uk/en/home/industrial/pharma-biopharma/drug-discovery-development/target-and-lead-identification-and-validation/kinasebiology/kinase-activity-assays.html. The tree representation in KinMap generated courtesy of Cell Signaling Technology, Inc. (www.cellsignal.com). mTORC1 (mTOR/RAPTOR/LST8) protein complex and ATM kinase and substrates were produced as previously described (Anandapadamanaban, M. et al. Science (New York, NY 366, 203-210 (2019); Baretic, D. et al. Sci Adv 3, e1700933 (2017). Screening of 1938 was conducted using SuperSep Phos-Tag 50 μmol/l 100×100×6.6 mm 17-well (192-18001/199-18011) gels. For ATM assays, 100 nM ATM was incubated for 30 min at 30° C. with 5 μM GST-p53 and 1 mM ATP, in the absence or presence of 200 μM 1938 in ATM Kinase Buffer (50 mM HEPES pH 7.5, 100 mM NaCl, 10% glycerol, 2 mM […], 5 mM MgCl2). […] Gels were then stained using InstantBlue™ Coomassie stain, and then quantified using BioRad Image Lab Software. […]

[2] = molecular target: T1, ATM (Homo sapiens, UniProt Q13315); test: ATM kinase assay (Phos-tag gel); format: biochemical; details: 200 μM 1938
T1 construct: made in house
Experimental: as §1

[3] = system: mice; test: In vivo model of ischaemia reperfusion injury in mice; set-up: species or system mouse; details: 10 mg/kg via jugular vein
Experimental: Male C57/BL6 mice weighing 25-30 g were used throughout. Animals received humane care in accordance with the United Kingdom Home Office Guide on the Operation of Animal (Scientific Procedures) Act 1986, Project Licence PPL70/15358.
Animals were anaesthetised with intraperitoneal (i.p.) sodium pentobarbital at a dose of 100 mg/kg. The mice were intubated by tracheotomy and ventilated with room air using a small animal ventilator (MinVent, Type 845, Hugo Sachs Elektronik, Harvard Apparatus). The mice were then placed on a heating pad and the rectal temperature monitored and maintained at ˜37° C. using a temperature controller. During the experiments, both ECG and heart rate were continuously recorded using a PowerLab (Adinstrument, USA). […]
After 120 min reperfusion, the chest was re-opened, the heart was removed and cannulated via the thoracic aorta, and blood within the heart was washed out with saline. […] The total area of myocardium, the non-ischaemic area (which is stained with Evans blue), and the infarct area (i.e. the white area) of each slice were measured using Image-J software. The “area at risk” was calculated by subtraction of the non-ischaemic area (blue area) from the whole slice area and expressed as “percentage of the left ventricle”, and “infarct size” calculated as infarct area as a percentage of the area at risk. […]

T1 sequence (Q13315 whole entry, species assumed): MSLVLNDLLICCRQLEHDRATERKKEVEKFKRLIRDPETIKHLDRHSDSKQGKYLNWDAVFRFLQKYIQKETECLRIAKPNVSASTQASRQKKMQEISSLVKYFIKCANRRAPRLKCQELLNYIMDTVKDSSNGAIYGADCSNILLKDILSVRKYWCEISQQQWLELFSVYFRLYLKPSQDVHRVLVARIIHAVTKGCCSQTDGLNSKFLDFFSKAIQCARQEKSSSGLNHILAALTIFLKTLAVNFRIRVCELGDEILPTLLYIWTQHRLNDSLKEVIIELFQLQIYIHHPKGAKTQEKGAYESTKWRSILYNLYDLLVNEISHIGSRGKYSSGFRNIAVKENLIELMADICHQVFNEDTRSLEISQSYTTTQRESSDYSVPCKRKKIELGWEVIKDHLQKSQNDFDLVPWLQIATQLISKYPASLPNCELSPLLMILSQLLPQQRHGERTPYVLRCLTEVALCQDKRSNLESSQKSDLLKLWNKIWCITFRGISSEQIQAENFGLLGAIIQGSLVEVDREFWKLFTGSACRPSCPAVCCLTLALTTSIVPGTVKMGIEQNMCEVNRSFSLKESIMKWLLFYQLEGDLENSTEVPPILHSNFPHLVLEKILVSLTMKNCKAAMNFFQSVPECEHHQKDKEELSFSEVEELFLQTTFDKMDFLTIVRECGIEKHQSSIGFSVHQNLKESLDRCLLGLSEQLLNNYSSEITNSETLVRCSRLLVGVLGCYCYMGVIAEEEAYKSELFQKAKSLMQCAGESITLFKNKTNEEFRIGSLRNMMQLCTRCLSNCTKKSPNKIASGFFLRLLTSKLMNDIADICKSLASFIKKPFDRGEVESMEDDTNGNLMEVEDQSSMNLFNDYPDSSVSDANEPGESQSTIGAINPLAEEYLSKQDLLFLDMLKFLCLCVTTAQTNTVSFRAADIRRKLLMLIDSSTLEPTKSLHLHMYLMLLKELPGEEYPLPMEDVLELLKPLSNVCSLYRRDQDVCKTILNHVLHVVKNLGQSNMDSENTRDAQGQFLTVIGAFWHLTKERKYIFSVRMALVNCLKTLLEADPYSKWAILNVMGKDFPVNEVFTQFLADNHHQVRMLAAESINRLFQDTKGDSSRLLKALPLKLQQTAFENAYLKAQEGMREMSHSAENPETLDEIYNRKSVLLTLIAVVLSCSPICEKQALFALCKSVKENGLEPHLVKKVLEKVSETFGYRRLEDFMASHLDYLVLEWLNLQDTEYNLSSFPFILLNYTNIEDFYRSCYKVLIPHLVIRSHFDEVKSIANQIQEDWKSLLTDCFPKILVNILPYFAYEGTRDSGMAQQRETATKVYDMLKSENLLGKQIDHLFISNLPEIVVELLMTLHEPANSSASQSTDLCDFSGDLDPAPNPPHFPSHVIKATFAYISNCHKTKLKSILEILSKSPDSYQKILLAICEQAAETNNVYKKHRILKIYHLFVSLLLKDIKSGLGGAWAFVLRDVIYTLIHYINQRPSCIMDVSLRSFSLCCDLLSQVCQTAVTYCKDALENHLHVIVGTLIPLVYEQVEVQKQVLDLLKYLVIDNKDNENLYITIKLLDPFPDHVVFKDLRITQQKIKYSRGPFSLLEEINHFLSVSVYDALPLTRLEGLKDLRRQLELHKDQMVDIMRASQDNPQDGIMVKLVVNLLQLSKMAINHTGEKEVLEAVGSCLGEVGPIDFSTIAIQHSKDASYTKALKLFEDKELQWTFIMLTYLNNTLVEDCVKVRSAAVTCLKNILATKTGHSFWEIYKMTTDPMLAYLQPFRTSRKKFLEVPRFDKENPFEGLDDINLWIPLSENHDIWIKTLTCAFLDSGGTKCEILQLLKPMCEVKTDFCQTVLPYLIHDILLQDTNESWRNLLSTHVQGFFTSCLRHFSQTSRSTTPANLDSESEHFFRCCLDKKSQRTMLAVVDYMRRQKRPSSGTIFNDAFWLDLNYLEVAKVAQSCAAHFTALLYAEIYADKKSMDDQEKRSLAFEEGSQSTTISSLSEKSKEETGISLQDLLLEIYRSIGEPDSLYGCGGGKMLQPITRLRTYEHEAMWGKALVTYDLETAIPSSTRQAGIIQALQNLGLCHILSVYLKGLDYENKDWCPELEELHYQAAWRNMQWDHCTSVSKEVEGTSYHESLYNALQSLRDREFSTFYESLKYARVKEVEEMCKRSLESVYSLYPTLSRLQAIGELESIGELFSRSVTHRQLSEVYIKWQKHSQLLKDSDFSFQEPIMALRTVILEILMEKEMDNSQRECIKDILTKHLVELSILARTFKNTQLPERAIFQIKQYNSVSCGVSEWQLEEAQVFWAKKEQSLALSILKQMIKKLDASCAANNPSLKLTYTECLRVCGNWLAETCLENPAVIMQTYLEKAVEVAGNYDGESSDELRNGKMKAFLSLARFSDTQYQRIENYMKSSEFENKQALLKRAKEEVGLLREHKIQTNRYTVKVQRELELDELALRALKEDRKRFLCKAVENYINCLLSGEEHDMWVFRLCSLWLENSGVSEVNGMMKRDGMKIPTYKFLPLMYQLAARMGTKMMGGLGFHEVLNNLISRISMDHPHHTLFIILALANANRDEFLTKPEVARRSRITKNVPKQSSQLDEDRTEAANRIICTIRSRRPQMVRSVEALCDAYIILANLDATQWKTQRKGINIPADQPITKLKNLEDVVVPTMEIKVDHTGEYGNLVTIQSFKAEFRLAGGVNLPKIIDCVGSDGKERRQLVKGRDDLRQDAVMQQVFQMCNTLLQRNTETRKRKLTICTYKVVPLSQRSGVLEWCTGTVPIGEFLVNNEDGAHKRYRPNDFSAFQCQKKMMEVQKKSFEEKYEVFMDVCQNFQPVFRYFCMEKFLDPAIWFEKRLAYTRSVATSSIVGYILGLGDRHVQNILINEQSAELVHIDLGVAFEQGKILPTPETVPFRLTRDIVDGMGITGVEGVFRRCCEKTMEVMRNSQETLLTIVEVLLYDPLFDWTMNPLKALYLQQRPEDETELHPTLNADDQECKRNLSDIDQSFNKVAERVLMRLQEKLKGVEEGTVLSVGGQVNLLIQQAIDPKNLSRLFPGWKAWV
Sequence of BRK (Q13882 whole entry): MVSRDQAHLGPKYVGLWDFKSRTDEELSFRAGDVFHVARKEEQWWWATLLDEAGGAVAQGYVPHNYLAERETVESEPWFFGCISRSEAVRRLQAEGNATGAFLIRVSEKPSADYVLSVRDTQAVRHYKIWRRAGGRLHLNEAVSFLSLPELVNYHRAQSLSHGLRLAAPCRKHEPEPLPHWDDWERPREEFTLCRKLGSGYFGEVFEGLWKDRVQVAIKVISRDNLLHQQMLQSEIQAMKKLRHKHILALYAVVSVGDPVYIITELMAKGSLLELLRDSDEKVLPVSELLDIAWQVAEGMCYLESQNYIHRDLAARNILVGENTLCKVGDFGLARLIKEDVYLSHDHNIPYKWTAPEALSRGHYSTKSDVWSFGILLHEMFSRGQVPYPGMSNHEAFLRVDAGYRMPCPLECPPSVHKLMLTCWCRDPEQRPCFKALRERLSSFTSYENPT

CCN1CCN(c2ccc(Nc3cc(Nc4cccc5c4N(C(C)=O)CC5)ccn3)cc2)CC1 [Example 1938]
inhibition of BRK [1]: 56% | activity of ATM [2]: did not affect | pAKT^S473 levels in the hearts of mice [3]: corresponding increase in pAKT^S473 levels | cardioprotection in mice ([3]; 15 min prior to reperfusion): significant cardioprotection
